According to the supplement of paper PMC10307832:

Compound: Cn1c(=O)n(-c2ccc(C(C)(C)C#N)cc2)c2c3cc(-c4cnc5ccccc5c4)ccc3ncc21 [Dactolisib] + Nc1ncn([C@H]2C[C@H](O)[C@@H](CO)O2)c(=O)n1 [Decitabine] (partner 2 µM)
Assay: relative viability (nuclei count vs DMSO), 5 days (fraction); higher = more cells survive
Conditions: first compound 0.006325 µM
How it was run: (§1)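 The day after seeding in 1536-well plates, lung cancer cell lines were treated by pin tool with a single drug, or with a fixed anchor-drug dose together with five library-drug doses (not always all listed) in √10 steps. After 5 days, a combined fix-and-stain solution (final 0.05% Triton X-100, 1% formaldehyde, 1 ug/ml Hoechst) was added. Nuclei counted on 4× images gave relative viability as treated counts over vehicle counts, reported as the median of duplicate plates.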

Cell Line	relative viability
NCI-H2342	0.689
NCI-H727	0.986
NCI-H1650	0.367
NCI-H1993	0.503
SK-LU-1	0.72
NCI-H838	0.446
LCLC-103H	0.677
NCI-H520	0.476
NCI-H2126	0.663
EMC-BAC-2	0.861
NCI-H2085	0.496
HCC-366	0.338
NCI-H1666	0.714
NCI-H596	0.965
LK-2	0.305
NCI-H2087	0.265

Cell Line	relative viability
NCI-H1648	0.476
SK-MES-1	0.362
H3255	0.614
COR-L23	0.445
COR-L 105	0.629
LOU-NH91	0.791
ChaGo-K-1	0.541
NCI-H2170	0.466
A549	0.292
NCI-H522	0.723
SW 900	0.443
NCI-H2009	0.373
NCI-H661	0.532
SW 1573	0.336
NCI-H2023	0.225

Same assay, conditions: first compound 0.02 µM

Cell Line	relative viability
NCI-H2342	0.677
NCI-H727	1.01
NCI-H1650	0.37
NCI-H1993	0.511
SK-LU-1	0.6
NCI-H838	0.4
LCLC-103H	0.592
NCI-H520	0.456
NCI-H2126	0.55
EMC-BAC-2	0.888
NCI-H2085	0.514
HCC-366	0.256
NCI-H1666	0.756
NCI-H596	0.814
LK-2	0.335
NCI-H2087	0.249

Cell Line	relative viability
NCI-H1648	0.595
SK-MES-1	0.369
H3255	0.559
COR-L23	0.32
COR-L 105	0.598
LOU-NH91	0.795
ChaGo-K-1	0.51
NCI-H2170	0.476
A549	0.248
NCI-H522	0.751
SW 900	0.405
NCI-H2009	0.362
NCI-H661	0.501
SW 1573	0.299
NCI-H2023	0.218

Same assay, conditions: first compound 0.06325 µM

Cell Line	relative viability
NCI-H2342	0.58
NCI-H727	0.465
NCI-H1650	0.294
NCI-H1993	0.389
SK-LU-1	0.44
NCI-H838	0.289
LCLC-103H	0.458
NCI-H520	0.206
NCI-H2126	0.462
EMC-BAC-2	0.54
NCI-H2085	0.405
HCC-366	0.28
NCI-H1666	0.607
NCI-H596	0.718
LK-2	0.159
NCI-H2087	0.205

Cell Line	relative viability
NCI-H1648	0.452
SK-MES-1	0.251
H3255	0.511
COR-L23	0.23
COR-L 105	0.395
LOU-NH91	0.623
ChaGo-K-1	0.527
NCI-H2170	0.371
A549	0.204
NCI-H522	0.62
SW 900	0.409
NCI-H2009	0.34
NCI-H661	0.346
SW 1573	0.185
NCI-H2023	0.115

Same assay, conditions: first compound 0.2 µM

Cell Line	relative viability
NCI-H2342	0.501
NCI-H727	0.496
NCI-H1650	0.315
NCI-H1993	0.46
SK-LU-1	0.388
NCI-H838	0.286
LCLC-103H	0.433
NCI-H520	0.156
NCI-H2126	0.416
EMC-BAC-2	0.551
NCI-H2085	0.373
HCC-366	0.133
NCI-H1666	0.596
NCI-H596	0.523
LK-2	0.142
NCI-H2087	0.133

Cell Line	relative viability
NCI-H1648	0.343
SK-MES-1	0.231
H3255	0.415
COR-L23	0.182
COR-L 105	0.326
LOU-NH91	0.565
ChaGo-K-1	0.501
NCI-H2170	0.354
A549	0.12
NCI-H522	0.533
SW 900	0.425
NCI-H2009	0.268
NCI-H661	0.324
SW 1573	0.149
NCI-H2023	0.0931

Compound: C1CCC(CC1)N(CCNCCC2=C3C(=C(C=C2)O)NC(=O)CO3)C(=O)CCNCCC4=CC(=C(C=C4)Cl)Cl [AZ505] + O=C(c1cc(Cc2n[nH]c(=O)c3ccccc23)ccc1F)N1CCN(C(=O)C2CC2)CC1 [Olaparib] (partner 8 µM)
Assay: as above
Conditions: first compound 0.08 µM
How it was run: as §1

Cell Line	relative viability
NCI-H2342	0.428
NCI-H727	0.653
NCI-H1650	0.723
EBC-1	0.644
NCI-H1703	0.319
NCI-H1993	0.995
SK-LU-1	0.268
NCI-H838	0.688
LCLC-103H	0.677
NCI-H520	0.288
NCI-H2126	0.841
EMC-BAC-2	0.453
NCI-H2085	0.715
Calu-6	0.543
HCC-366	0.277
NCI-H1666	0.736
NCI-H596	0.743
LK-2	0.597
NCI-H2087	0.515

Cell Line	relative viability
SK-MES-1	0.682
H3255	0.55
COR-L23	0.282
COR-L 105	0.405
IA-LM	0.78
LOU-NH91	0.87
ChaGo-K-1	0.404
NCI-H2170	0.544
A549	0.315
NCI-H522	0.607
SW 900	0.853
NCI-H2009	0.64
NCI-H661	0.732
SW 1573	0.391
NCI-H1299	0.897
CAL-12T	0.588
NCI-H2228	0.669
NCI-H2023	0.414

Same assay, conditions: first compound 0.253 µM

Cell Line	relative viability
NCI-H2342	0.463
NCI-H727	0.675
NCI-H1650	0.803
EBC-1	0.693
NCI-H1703	0.502
NCI-H1993	1.12
SK-LU-1	0.364
NCI-H838	0.765
LCLC-103H	0.729
NCI-H520	0.279
NCI-H2126	0.915
EMC-BAC-2	0.541
NCI-H2085	0.797
Calu-6	0.59
HCC-366	0.439
NCI-H1666	0.812
LK-2	0.583
NCI-H2087	0.536
NCI-H1648	0.794

Cell Line	relative viability
SK-MES-1	0.694
H3255	0.564
COR-L23	0.344
COR-L 105	0.657
IA-LM	0.846
LOU-NH91	0.897
ChaGo-K-1	0.439
NCI-H2170	0.601
A549	0.362
NCI-H522	0.645
SW 900	0.775
NCI-H2009	0.675
NCI-H661	0.751
SW 1573	0.493
NCI-H1299	0.925
CAL-12T	0.777
NCI-H2228	0.627
NCI-H2023	0.496

Same assay, conditions: first compound 0.8 µM

Cell Line	relative viability
NCI-H2342	0.491
NCI-H727	0.667
NCI-H1650	0.735
EBC-1	0.673
NCI-H1703	0.438
NCI-H1993	1.14
SK-LU-1	0.349
NCI-H838	0.744
LCLC-103H	0.729
NCI-H520	0.367
NCI-H2126	0.827
EMC-BAC-2	0.487
NCI-H2085	0.654
Calu-6	0.525
HCC-366	0.315
NCI-H1666	0.721
NCI-H596	0.704
LK-2	0.87
NCI-H2087	0.552

Cell Line	relative viability
NCI-H1648	0.795
SK-MES-1	0.662
H3255	0.569
COR-L23	0.32
COR-L 105	0.698
IA-LM	0.807
LOU-NH91	0.886
ChaGo-K-1	0.431
NCI-H2170	0.614
A549	0.358
NCI-H522	0.698
SW 900	0.86
NCI-H2009	0.647
NCI-H661	0.728
SW 1573	0.425
NCI-H1299	0.932
CAL-12T	0.736
NCI-H2228	0.524
NCI-H2023	0.499

Same assay, conditions: first compound 2.53 µM

Cell Line	relative viability
NCI-H2342	0.485
NCI-H727	0.724
NCI-H1650	0.727
EBC-1	0.69
NCI-H1703	0.411
NCI-H1993	1.01
SK-LU-1	0.314
NCI-H838	0.787
LCLC-103H	0.734
NCI-H520	0.302
NCI-H2126	0.878
EMC-BAC-2	0.524
NCI-H2085	0.735
Calu-6	0.504
HCC-366	0.412
NCI-H1666	0.731
NCI-H596	0.722
LK-2	0.822
NCI-H2087	0.629

Cell Line	relative viability
NCI-H1648	0.754
SK-MES-1	0.603
H3255	0.601
COR-L23	0.374
COR-L 105	0.715
IA-LM	0.902
LOU-NH91	0.903
ChaGo-K-1	0.402
NCI-H2170	0.58
A549	0.415
NCI-H522	0.698
SW 900	0.932
NCI-H2009	0.652
NCI-H661	0.709
SW 1573	0.468
NCI-H1299	0.885
CAL-12T	0.706
NCI-H2228	0.863
NCI-H2023	0.471

Same assay, conditions: first compound 8 µM

Cell Line	relative viability
NCI-H2342	0.488
NCI-H727	0.662
NCI-H1650	0.853
EBC-1	0.642
NCI-H1703	0.656
NCI-H1993	1.16
SK-LU-1	0.326
NCI-H838	0.776
LCLC-103H	0.717
NCI-H520	0.349
NCI-H2126	0.948
EMC-BAC-2	0.437
NCI-H2085	0.729
Calu-6	0.608
HCC-366	0.406
NCI-H1666	0.764
NCI-H596	0.598
LK-2	0.784
NCI-H2087	0.611

Cell Line	relative viability
NCI-H1648	1.38
SK-MES-1	0.719
H3255	0.597
COR-L23	0.38
COR-L 105	0.554
IA-LM	0.889
LOU-NH91	0.894
ChaGo-K-1	0.469
NCI-H2170	0.594
A549	0.296
NCI-H522	0.685
SW 900	0.987
NCI-H2009	0.629
NCI-H661	0.727
SW 1573	0.467
NCI-H1299	0.876
CAL-12T	0.696
NCI-H2228	0.481
NCI-H2023	0.43
